# Results taken from patent publication US11286288B2, “Pharmaceutical compound” (VALLAURIX PTE. LTD., priority 2015, dated 2022).
# Key:
# Assay type in all cases: cell-based
# MC1R [1] = target: T1, MC1R (Homo sapiens, UniProt Q01726); experiment: cAMP radioimmunoassay in human melanocyte culture 1753
# T1 construct: human melanocyte cultures, coded 1750 and 1753, that were derived from 2 different donors expressing functional MC1R; endogenous in cells; host or cells: primary human melanocyte cultures 1750 and 1753 (two donors)
# Protocol: Compounds 1, 2, 3 and 4 were tested in various separate tests and using 2 different human melanocyte cultures, coded 1750 and 1753, that were derived from 2 different donors expressing functional MC1R. The melanocytes were plated at a density of 0.3*10^6 cells/well. After 48 hours, the melanocytes were treated with the different compound concentrations for 1 hour. Controls without compound were included in all experiments. […] The reaction was stopped by addition of 50 μl N HCl and the supernatant in each well was used to measure cAMP using a radioimmunoassay as described by Suzuki 1996 (Suzuki I, Cone R D, Im S, Nordlund ii, Abdel-Malek Z: “Binding of melanotropic hormones to the MC1 receptor on human melanocytes stimulates proliferation and melanogenesis”. Endocrinology 137: 1627-1633, 1996). Duplicate samples from each well were assayed with triplicate wells included in each compound group. The results from different tests cannot be compared due to differences in melanocyte cultures and to different passage number. The mean of 6 cAMP measurements per group was expressed as % of the control group. Statistical analysis was carried out using ANOVA followed by Newman Kuels test. In some cases, unpaired t-test was used.
# tyrosinase = experiment: Tyrosinase activity (3H-tyrosine) in human melanocyte culture 1750; conditions: Test 4, melanocytes 1750, six days treatment; concentration not given
# Protocol: Compounds 1, 2, 3 and 4 were tested in various separate tests and using 2 different human melanocyte cultures, coded 1750 and 1753, that were derived from 2 different donors expressing functional MC1R. The melanocytes were plated at a density of 0.3*10^6 cells onto 60 mm dishes (triplicate dishes/group). After 48 hours, the melanocytes were treated every other day for a total of six days with different doses of each compound. Controls without compound were included in all experiments. In some experiments reference compound NDP-MSH was included. On treatment day 5, ^3H-labeled tyrosine, the substrate for tyrosinase, was added and 24 hours later, the supernatant was saved to be assayed for tyrosinase activity as described by Suzuki et al (see example 3). Duplicate samples from each were assayed, with triplicate dishes included in each group. Cell number in each dish was counted, and tyrosinase activity was expressed as dpm/10^6 cells and as % of the control. Tests results between separate tests cannot be compared due to differences in melanocyte cultures and to different passage number. Statistical analysis was carried out using ANOVA followed by Newman Kuels test.
# It will be understood that this tyrosinase activation test relates to a late event after MC1R activation, compared to the earlier secondary messenger effect of the above cAMP test. As pointed out above, activity of tyrosinase requires days of treatment. Following are the results comparing the compounds in the test indicated: […]
# MC1R [2] = target: T1, MC1R; experiment: cAMP radioimmunoassay in human melanocyte culture 1750
# Protocol: Compounds 1, 2, 3 and 4 were tested in various separate tests and using 2 different human melanocyte cultures, coded 1750 and 1753, that were derived from 2 different donors expressing functional MC1R. The melanocytes were plated at a density of 0.3*10^6 cells/well. After 48 hours, the melanocytes were treated with the different compound concentrations for 1 hour. Controls without compound were included in all experiments. In some experiments reference compound NDP-MSH was included. The reaction was stopped by addition of 50 μl N HCl and the supernatant in each well was used to measure cAMP using a radioimmunoassay as described by Suzuki 1996 (Suzuki I, Cone R D, Im S, Nordlund ii, Abdel-Malek Z: “Binding of melanotropic hormones to the MC1 receptor on human melanocytes stimulates proliferation and melanogenesis”. Endocrinology 137: 1627-1633, 1996). Duplicate samples from each well were assayed with triplicate wells included in each compound group. The results from different tests cannot be compared due to differences in melanocyte cultures and to different passage number. The mean of 6 cAMP measurements per group was expressed as % of the control group. Statistical analysis was carried out using ANOVA followed by Newman Kuels test. In some cases, unpaired t-test was used.
# T1 sequence (Q01726 whole entry): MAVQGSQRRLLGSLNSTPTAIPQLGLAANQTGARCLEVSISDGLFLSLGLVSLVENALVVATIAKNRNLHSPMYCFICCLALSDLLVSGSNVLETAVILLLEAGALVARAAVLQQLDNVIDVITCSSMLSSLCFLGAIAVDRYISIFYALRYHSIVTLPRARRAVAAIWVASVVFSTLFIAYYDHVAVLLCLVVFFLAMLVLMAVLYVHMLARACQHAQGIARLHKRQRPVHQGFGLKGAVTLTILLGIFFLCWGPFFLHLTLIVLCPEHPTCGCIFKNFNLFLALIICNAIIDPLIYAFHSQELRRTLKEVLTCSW
substance,measurement,setting,value
(C2H5)3N—CH2—CO-Nle-Glu-His-D-Phe-Arg-Trp-NH2 [Compound 1],"cAMP, highest overall efficacy value, % of the control group","MC1R [1]; Test 2, melanocytes 1753, at 10^-7 M, 1 hour treatment, p<0.05",431%
same,"tyrosinase activity, efficacy, % of the control",tyrosinase,178%
(C2H5)3N—CH2—CO-Nle-Glu-His-D-Phe-homoArg-Trp-NH2 [Compound 3],dose at which maximum effect on cAMP was achieved,"MC1R [1]; Test 2, melanocytes 1753, p<0.05 vs control",10^−9 M
same,"cAMP, highest overall efficacy value, % of the control group","MC1R [2]; Test 1, melanocytes 1750, at 10^-7 M, 1 hour treatment, p<0.05",327%
(CH3)3N—(CH2)3—CO-Nle-Glu-His-D-Phe-Arg-Trp-NH2 [Compound 2],lowest dose showing cAMP efficacy statistically different from control,"MC1R [1]; Test 2, melanocytes 1753, p<0.05",10^−11 M
same,dose at which maximum effect on cAMP (vs control) was achieved,"MC1R [2]; Test 1, melanocytes 1750, 1 hour treatment, p<0.05 vs control",10^−8 M
same,"tyrosinase activity, efficacy, % of the control",tyrosinase,171%
(CH3)3N—(CH2)3—CO-Nle-Glu-His-D-Phe-homoArg-Trp-NH2 [Compound 4],"cAMP, highest efficacy, % of the control group","MC1R [1]; Test 3, melanocytes 1753, at 10^-7 M, 1 hour treatment, p<0.05",253%
NDP-MSH [reference compound],"tyrosinase activity, efficacy, % of the control",tyrosinase,166%
